Data reported in patent US11535596B2 (priority 2020, dated 2022).
Read-outs that look alike come from different tables or passages of the source.

Columns and labels:
[1] = Drug stability in human liver microsomes; type: in vitro ADME
Description: Testing of Drug Stability in Human Liver Microsomes
This assay involves exposing a test compound to vesicles which contain the contents of digestive organelles (endoplasmic reticula) derived from human liver cells. The tests were done by Microconstants Inc., San Diego, Calif., using methods substantially as described in J. R. Hill, “In vitro drug metabolism using liver microsomes,” Curr. Protocols Pharmacol., Chapter 7, Unit 7.8 (2004), John Wiley & Sons, Inc.
The results, in Table 1 below, indicate the percentage decomposition of the test compound after 1 hour. […] Although degraded as rapidly, or even more rapidly than DM, other compounds remain of interest due to their receptor binding activities, as detailed further below.

[2] = Caco-2 bidirectional permeability assay; type: in vitro ADME; design: Papp A→B / Papp B→A: dose or concentration left out as unconfirmed; conditions: human
Description: The human colon carcinoma cell Caco-2 provides a well-established and effective model for predicting intestinal absorption of chemicals, and in determining the mechanism of transport. […] The method is used to assess the bidirectional permeability of a test compound, from the apical to the basolateral side (A-B) of a Caco-2 cell monolayer membrane, and vice versa (B-A). R. B. van Breemen, Y. Li, “Caco-2 cell permeability assays to measure drug absorption,” Expert Opin. Drug Metab. […] The transport rate of a compound across the monolayer is highly predictive of the in vivo absorption of the compound across the gut wall, and the Caco-2 permeability assay is an FDA-recommended method for evaluating the absorption of orally-administered drugs. Results of this assay for selected reference drugs and compounds of the invention are set out in Table 3.

[3] = target: phencyclidine site of NMDA-type glutamate receptors; assay: NMDA receptor (phencyclidine site) radioligand binding inhibition
Protocol: In vitro binding assays for the phencyclidine site of NMDA-type glutamate receptors, and for sigma-1 receptors, both of which are known to be bound by DM, were conducted by Sekisui Medical Co., Ltd. of Ibaraki, Japan. In these assays, DM acts as an antagonist at NMDA receptors, which are excitatory in their effects, thereby allowing DM to reduce, calm, and modulate unwanted neuronal activity in neuronal networks that are activated by glutamate agonist activity at NMDA receptors. DM acts as an agonist at sigma-1 receptors, which are inhibitory receptors, thereby allowing DM to reduce unwanted neuronal activity by a second mechanism. Assays for sigma-1 and NMDA (phencyclidine site) receptor affinities, based on inhibition of radioligand binding, provided the results shown in Table 2 below.

[4] = target: sigma-1 receptors (Homo sapiens (Human), UniProt Q99720); assay: biochemical; type: binding
[5] = target: κ opioid receptor (Homo sapiens (Human), UniProt P41145); assay: biochemical; conditions: 3H-diprenorphine binding; for IC50: read-out: Opiate κ IC50; for Ki: read-out: Opiate κ Ki
[6] = target: human recombinant hERG (Homo sapiens (Human), UniProt Q12809); assay: hERG radioligand (3H-astemizole) binding assay
Description: Cardiac Potassium Channel (hERG) Assays
The human ether-a-go-go related gene (hERG) encodes the inward-rectifying voltage-gated potassium channel (IKr) in the heart, which is involved in cardiac repolarization. Inhibition of the hERG current causes QT interval prolongation, potentially resulting in ventricular tachyarrhythmia, and the detection of this potential liability is desirable at an early stage of drug discovery.

[7] = target: μ opioid receptor (Homo sapiens (Human), UniProt P35372); assay: μ opioid receptor radioligand (3H-diprenorphine) binding assay
[8] = target: human serotonin transporter (Homo sapiens (Human), UniProt P31645); assay: biochemical; conditions: 3H-imipramine binding, HEK-293 membranes; for IC50: read-out: SERT IC50; for Ki: read-out: SERT Ki
Description: Serotonin Transporter (SERT) Assay
The serotonin transporter (SERT) is a monoamine transporter protein that transports serotonin from the synaptic cleft back to the presynaptic neuron (serotonin reuptake.) Serotonin modulates emotional states in humans, and inhibition of SERT activity is the basis for the SSRI class of antidepressants.

[9] = cited from earlier work
[10] = inhibition of radioligand binding, read-out: Sigma-1 IC50
[11] = inhibition of radioligand binding, read-out: Sigma-1 Ki

Chain of sigma-1 receptors (Q99720 whole entry, looked up): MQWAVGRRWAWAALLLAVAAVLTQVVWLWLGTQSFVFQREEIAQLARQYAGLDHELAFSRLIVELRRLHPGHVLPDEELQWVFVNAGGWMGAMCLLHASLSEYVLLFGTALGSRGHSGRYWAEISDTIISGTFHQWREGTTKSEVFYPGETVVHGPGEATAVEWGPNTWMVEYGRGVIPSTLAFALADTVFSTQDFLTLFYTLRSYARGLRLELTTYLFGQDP
Chain of human recombinant hERG (Q12809 whole entry, looked up): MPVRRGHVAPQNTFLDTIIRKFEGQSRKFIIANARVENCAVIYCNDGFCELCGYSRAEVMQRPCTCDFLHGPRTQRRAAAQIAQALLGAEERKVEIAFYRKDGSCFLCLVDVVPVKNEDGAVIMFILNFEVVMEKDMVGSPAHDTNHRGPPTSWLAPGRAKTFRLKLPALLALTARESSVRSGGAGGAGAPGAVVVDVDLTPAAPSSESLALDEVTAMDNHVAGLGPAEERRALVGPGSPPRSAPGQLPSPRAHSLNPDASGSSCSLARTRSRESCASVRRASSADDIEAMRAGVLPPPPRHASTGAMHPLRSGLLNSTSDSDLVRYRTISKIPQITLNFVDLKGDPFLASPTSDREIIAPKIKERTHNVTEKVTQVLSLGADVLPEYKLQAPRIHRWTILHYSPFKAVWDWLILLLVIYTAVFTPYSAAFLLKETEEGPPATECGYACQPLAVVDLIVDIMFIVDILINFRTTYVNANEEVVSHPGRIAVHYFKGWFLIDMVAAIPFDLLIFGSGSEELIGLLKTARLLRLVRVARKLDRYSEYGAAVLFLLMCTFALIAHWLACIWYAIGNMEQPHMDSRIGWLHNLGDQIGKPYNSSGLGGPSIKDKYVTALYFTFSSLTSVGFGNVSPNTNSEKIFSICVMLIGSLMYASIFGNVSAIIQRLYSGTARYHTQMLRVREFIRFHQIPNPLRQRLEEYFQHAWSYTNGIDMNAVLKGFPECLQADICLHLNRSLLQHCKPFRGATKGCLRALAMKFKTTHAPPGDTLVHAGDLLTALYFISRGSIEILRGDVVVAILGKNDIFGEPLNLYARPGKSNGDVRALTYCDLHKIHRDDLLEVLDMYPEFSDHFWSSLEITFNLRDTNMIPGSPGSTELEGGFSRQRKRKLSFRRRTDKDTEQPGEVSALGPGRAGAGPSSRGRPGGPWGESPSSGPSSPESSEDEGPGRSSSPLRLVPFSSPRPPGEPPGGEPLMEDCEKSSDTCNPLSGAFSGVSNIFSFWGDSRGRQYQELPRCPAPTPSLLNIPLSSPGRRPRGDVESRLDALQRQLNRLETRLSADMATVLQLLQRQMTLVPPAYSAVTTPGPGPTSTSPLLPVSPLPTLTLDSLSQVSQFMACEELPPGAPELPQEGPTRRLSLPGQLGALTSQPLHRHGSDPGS

Compound: CN1CC[C@@]23CCCC[C@@H]2C1Cc1ccc(OCC(F)F)cc13 [CNS1]
- rate of metabolism and degradation compared with DM [1]: metabolized and degraded less rapidly than DM
- % decomposition at 1 hour [1]: 6.1%

Compound: COc1ccc2c(c1)[C@]13CCCCC1C(C2)N(Cc1cccnc1)CC3 (stereo partly drawn) [CNS10]
- % decomposition at 1 hour [1]: 98.4%

Compound: CC(C)NCC(O)COc1cccc2ccccc12 (stereo not drawn) [Propranolol, reference compound]
- Papp A→B ([2]; apical to basolateral): 21.2 ×10⁻⁶ cm/s
- Papp B→A ([2]; basolateral to apical): 39 ×10⁻⁶ cm/s

Compound: CN1CC[C@@]23CCCCC2C1Cc1ccc(OCC(F)F)c(Br)c13 (stereo partly drawn) [CNS6-A1-D2]
- t1/2 [1]: 60 min
- IC50 [3]: > 30000 nM
- IC50 [4, 10]: 21.8 nM
- Ki [4, 11]: 15.3 nM

Compound: [2H]C([2H])(Oc1ccc2c(c1)[C@]13CCCC[C@@H]1[C@H](C2)NCC3)C(F)F [N-desmethyl CNS1-D2, (1S,9S,10S)-4-(1,1-dideuterio-2,2-difluoro-ethoxy)-17-azatetracyclo[7.5.3.0^1,10.0^2,7]heptadeca-2,4,6-triene]
- IC50 [5]: 37700 nM
- Ki [5]: 15200 nM
- half-life [1]: > 240 min
- % decomposition at 1 hour [1]: 10.1%
- IC50 [6]: 26600 nM
- Ki [6]: 5730 nM
- Papp A→B at 0.1 μM ([2]; apical to basolateral): 9.71 ×10⁻⁶ cm/s
- Papp B→A at 0.1 μM ([2]; basolateral to apical): 6.33 ×10⁻⁶ cm/s
- Papp A→B at 1 μM ([2]; apical to basolateral): 10.8 ×10⁻⁶ cm/s
- Papp B→A at 1 μM ([2]; basolateral to apical): 10.1 ×10⁻⁶ cm/s
- IC50 [7]: 142000 nM
- Ki [7]: 26300 nM
- Ki [3]: 3080 nM
- Ki [4, 11]: 70 nM
- IC50 [8]: 470 nM
- Ki [8]: 279 nM

Compound: C=CCN(C)CC[C@@]12CCCC[C@@H]1C=Cc1ccc(OC)cc12 [CNS22]
- half-life [1]: 36 min
- IC50 [4]: 29.1 nM
- Ki [4]: 20.5 nM

Compound: [2H]C([2H])(Oc1ccc2c(c1)[C@]13CCCC[C@@H]1[C@H](C2)N(CCOC)CC3)C(F)F [CNS27-D2, (1S,9S,10S)-4-(1,1-dideuterio-2,2-difluoro-ethoxy)-17-(2-methoxyethyl)-17-azatetracyclo[7.5.3.0^1,10.0^2,7]-heptadeca-2,4,6-triene]
- IC50 [5]: 28800 nM
- Ki [5]: 11600 nM
- IC50 [6]: 22300 nM
- Ki [6]: 4800 nM
- Papp A→B at 0.1 μM ([2]; apical to basolateral): 10.2 ×10⁻⁶ cm/s
- Papp B→A at 0.1 μM ([2]; basolateral to apical): 9.76 ×10⁻⁶ cm/s
- Papp A→B at 1 μM ([2]; apical to basolateral): 11.6 ×10⁻⁶ cm/s
- Papp B→A at 1 μM ([2]; basolateral to apical): 13.1 ×10⁻⁶ cm/s
- IC50 [7]: 124000 nM
- Ki [7]: 23000 nM
- Ki [3]: > 23000 nM
- Ki [4, 11]: 1.6 nM
- IC50 [8]: 2680 nM
- Ki [8]: 1590 nM

Compound: [2H]C([2H])(Oc1ccc2c(c1)[C@]13CCCC[C@@H]1[C@H](C2)N(C)CC3)C(F)F [CNS1-D2, (1S,9S,10S)-4-(1,1-dideuterio-2,2-difluoroethoxy)-17-methyl-17-azatetracyclo[7.5.3.0^1,10.0^2,7]heptadeca-2(7),3,5-triene]
- half-life [1]: 123 min
- IC50 [3]: > 30000 nM
- IC50 [4, 10]: 57.8 nM
- Ki [4, 11]: 40.6 nM

Compound: CN1CC[C@@]23CCCC[C@@H]2[C@@H]1Cc1ccc(OCc2ccncc2)cc13 [CNS4]
- % decomposition at 1 hour [1]: 100%

Compound: CN1CC[C@@]23CCCC[C@@H]2[C@@H]1Cc1ccc(O)c(Br)c13 [CNS6, (1S,9S,10S)-3-bromo-4-hydroxy-17-methyl-17-azatetracyclo[7.5.3.0^1,10.0^2,7]-heptadeca-2(7),3,5-triene]
- % decomposition at 1 hour [1]: 56%
- IC50 [3]: > 30000 nM
- IC50 [4, 10]: 172 nM
- Ki [4, 11]: 121 nM

Compound: COc1cc2c(cc1Br)CC1C3CCCC[C@@]23CCN1C (stereo partly drawn) [CNS7-M]
- IC50 [4]: > 10000 nM

Compound: COc1ccc2c(c1)[C@]13CCCC[C@@H]1[C@H](C2)N(C)CC3 [Dextromethorphan (DM), 3-methoxy-17-methyl-(9α,13α,14α)-morphinan, reference compound]
- half-life [1]: 35 min
- % decomposition at 1 hour [1]: 69%
- IC50 [6]: 49100 nM
- Ki [6]: 10600 nM
- Papp A→B at 0.1 μM ([2]; apical to basolateral): 15.9 ×10⁻⁶ cm/s
- Papp B→A at 0.1 μM ([2]; basolateral to apical): 10.8 ×10⁻⁶ cm/s
- Papp A→B at 1 μM ([2]; apical to basolateral): 19 ×10⁻⁶ cm/s
- Papp B→A at 1 μM ([2]; basolateral to apical): 14.2 ×10⁻⁶ cm/s
- IC50 [7]: 51700 nM
- Ki [7]: 9580 nM
- plasma levels ([9]; fast metabolizers, 30 mg dose, four hours post ingestion): less than 5 ng/ml
- plasma levels ([9]; poor metabolizers, oral dose of 30 mg, at 24 hours): above 5 ng/ml
- IC50 [3]: 6820 nM
- Ki [3]: 4520 nM
- IC50 [4]: 137 nM
- Ki [4]: 96.3 nM

Compound: [2H]C([2H])(Oc1ccc2c(c1)[C@]1(CCN(C)CC=C)CCCC[C@@H]1C=C2)C(F)F [CNS23-D2]
- half-life [1]: 32 min
- IC50 [4, 10]: 11.1 nM
- Ki [4, 11]: 7.8 nM

Compound: CN1CC[C@@]23CCCC[C@@H]2[C@@H]1Cc1ccc(O)cc13 [Dextorphan (DX), reference compound]
- IC50 [3]: 1530 nM
- Ki [3]: 1110 nM
- IC50 [4, 10]: 259 nM
- Ki [4, 11]: 182 nM

Compound: Cc1ccc2c(c1)[C@]13CCCC[C@@H]1[C@H](C2)N(C)CC3 [Dimemorphan (DIM), reference compound]
- t1/2 [1]: 22 min
- IC50 [3]: > 30000 nM
- IC50 [4, 10]: 527 nM
- Ki [4, 11]: 371 nM

Compound: CN1CC[C@@]23CCCC[C@@H]2[C@@H]1Cc1ccc(OCC(F)(F)F)cc13 [CNS-222, (1S,9S,10S)-4-(2,2,2-trifluoroethoxy)-17-methyl-17-azatetracyclo[7.5.3.0^1,10.0^2,7]heptadeca-2(7),3,5-triene]
- IC50 [4, 10]: 50 nM

Compound: CN1CC[C@@]23CCCC[C@@H]2C1Cc1ccc(OCCF)cc13 [CNS2]
- rate of metabolism and degradation compared with DM [1]: metabolized and degraded less rapidly than DM
- % decomposition at 1 hour [1]: 15.4%

Compound: COc1ccc2c(c1Br)[C@]13CCCCC1[C@H](C2)N(C)CC3 (stereo partly drawn) [CNS6-A2]
- IC50 [4, 10]: 247 nM

Compound: [2H]C([2H])(Oc1ccc2c(c1)[C@]13CCCC[C@@H]1[C@H](C2)N(C([2H])([2H])[2H])CC3)C(F)F [CNS1-D5, (1S,9S,10S)-4-(1,1-dideuterio-2,2-difluoroethoxy)-17-(trideuteriomethyl)-17-azatetracyclo[7.5.3.0^1,10.0^2,7]-heptadeca-2,4,6-triene]
- IC50 [5]: 29800 nM
- Ki [5]: 12000 nM
- half-life [1]: > 240 min
- % decomposition at 1 hour [1]: 9.7%
- IC50 [6]: 34500 nM
- Ki [6]: 7480 nM
- Papp A→B at 0.1 μM ([2]; apical to basolateral): 14.4 ×10⁻⁶ cm/s
- Papp B→A at 0.1 μM ([2]; basolateral to apical): 12.5 ×10⁻⁶ cm/s
- Papp A→B at 1 μM ([2]; apical to basolateral): 18.4 ×10⁻⁶ cm/s
- Papp B→A at 1 μM ([2]; basolateral to apical): 15.4 ×10⁻⁶ cm/s
- IC50 [7]: 54700 nM
- Ki [7]: 10100 nM
- Ki [3]: 9900 nM
- Ki [4, 11]: 22 nM
- IC50 [8]: 44.1 nM
- Ki [8]: 26.2 nM
